Data published in patent publication US9168259B2 (GRÜNENTHAL GMBH, priority 2010, dated 2015).
Like-named read-outs stand apart in the source and are kept apart here.

Target: T1, KCNQ2/3 channels (Homo sapiens, UniProt O43525+O43526)
T1 construct: expressed in transfected cells
Assay: Fluorescence assay using a voltage sensitive dye (fluorimetry)
Assay type: cell-based
Conditions: for EC50: IC50 where % efficacy is negative, read-out: Fluorimetry EC50/IC50
From the text: Method I. Fluorescence Assay Using a Voltage Sensitive Dye (Fluorimetry)
These voltage-sensitive dyes are fluorescent dyes and, therefore, are forming the link between cell potential influenced by KCNQ modulation and fluorescence intensity. A KCNQ agonist leads to an opening of the channel, potassium and dye efflux, a following hyperpolarization and a reduction of the inner fluorescence intensity in a kinetic protocol. If applying an ion jump by KCl depolarization, KCNQ agonists increase the ΔF/F value. An antagonist performs vice versa, respectively.
Therefore, ‘fluorimetry EC50’ is a measure for the compound potency. The compound efficacy is mirrored by ‘fluorimetry % efficacy’ (‘% Efficacy’) and refers to the maximum response achievable by the test compound, i.e. the plateau effect. This drug's plateau effect is related to the plateau effect, which can be achieved by applying a saturated concentration of a reference compound, e.g. Retigabine (50 μM), in independent wells of the same experimental plate or series.
[…] CHO-K1 cells expressing KCNQ2/3 channels are cultivated adherently at 37° C., 5% CO2 and 95% humidity in cell culture bottles (e.g. 80 cm^2 TC flasks, Nunc) with DMEM-high glucose (Sigma Aldrich, D7777) including 10% FCS (PAN Biotech, e.g. 3302-P270521) or alternatively MEM Alpha Medium (1×, liquid, Invitrogen, #22571), 10% fetal calf serum (FCS) (Invitrogen, #10270-106, heat-inactivated) and the necessary selection antibiotics.
The cell number is determined using a CASY™ cell counter (TCC, Schärfe System). Depending on the optimal density for each individual cell line, 20,000-30,000 cells/well/100 μl are seeded onto 96-well Corning™ CellBIND™ assay plates (Flat Clear Bottom Black Polystyrene Microplates, #3340). Freshly seeded cells are then left to settle for one hour at room temperature, followed by incubation for 24 hours at 37° C., 5% CO2 and 95% humidity.
The voltage-sensitive fluorescent dye from the Membrane Potential Assay Kit (Red™ Bulk format part R8123 for FLIPR, MDS Analytical Technologies™) is prepared by dissolving the contents of one vessel Membrane Potential Assay Kit Red Component A in 200 ml of extracellular buffer (ES buffer, 120 mM NaCl, 1 mM KCl, 10 mM HEPES, 2 mM CaCl2, 2 mM MgCl2, 10 mM glucose; pH 7.4). After removal of the nutrient medium, the cells are washed once with 200 μl of ES buffer, then loaded for 45 min at room temperature in 100 μl of dye solution in the dark.
Fluorescence measurements are carried out in a BMG Labtech FLUOstar™, BMG Labtech NOVOstar™ or BMG Labtech POLARstar™ instrument (525 nm excitation, 560 nm emission, Bottom Read mode). After incubation with the dye, 50 μl of the test substances in the desired concentrations, or 50 μl of ES buffer for control purposes, are applied to the wells of the assay plate and incubated for 30 min at room temperature while being shielded from light. The fluorescence intensity of the dye is then measured for 5 min and the fluorescence value F1 of each well is thus determined at a given, constant time. 15 μl of a KCl solution are then added to each well (final concentration of potassium ions 92 mM). The change in fluorescence intensity is subsequently monitored until all the relevant values have been obtained (mainly 5-30 min). At a given time post KCl application, a fluorescence value F2 is determined, in this case at the time of the fluorescence peak.
For calculation, the fluorescence intensity F2 is corrected for the fluorescence intensity F1, and the activity (ΔF/F) of the target compound on the potassium channel is determined as follows:
In order to determine whether a substance has agonistic activity,
[formula] can be related to
[formula] of control wells.
[formula] is determined by adding to the well only the buffer solution instead of the test substance, determining the value F1K of the fluorescence intensity, adding the potassium ions as described above, and measuring a value F2K of the fluorescence intensity.

[1] = CHO-K1, plateau effect relative to saturated retigabine (50 μM) = 100%, CHO-K1 cells expressing KCNQ2/3, negative values = antagonistic, read-out: Fluorimetry % efficacy (retigabine = 100%)
[2] = CHO-K1 cells expressing KCNQ2/3

T1 sequence (O43526 whole entry): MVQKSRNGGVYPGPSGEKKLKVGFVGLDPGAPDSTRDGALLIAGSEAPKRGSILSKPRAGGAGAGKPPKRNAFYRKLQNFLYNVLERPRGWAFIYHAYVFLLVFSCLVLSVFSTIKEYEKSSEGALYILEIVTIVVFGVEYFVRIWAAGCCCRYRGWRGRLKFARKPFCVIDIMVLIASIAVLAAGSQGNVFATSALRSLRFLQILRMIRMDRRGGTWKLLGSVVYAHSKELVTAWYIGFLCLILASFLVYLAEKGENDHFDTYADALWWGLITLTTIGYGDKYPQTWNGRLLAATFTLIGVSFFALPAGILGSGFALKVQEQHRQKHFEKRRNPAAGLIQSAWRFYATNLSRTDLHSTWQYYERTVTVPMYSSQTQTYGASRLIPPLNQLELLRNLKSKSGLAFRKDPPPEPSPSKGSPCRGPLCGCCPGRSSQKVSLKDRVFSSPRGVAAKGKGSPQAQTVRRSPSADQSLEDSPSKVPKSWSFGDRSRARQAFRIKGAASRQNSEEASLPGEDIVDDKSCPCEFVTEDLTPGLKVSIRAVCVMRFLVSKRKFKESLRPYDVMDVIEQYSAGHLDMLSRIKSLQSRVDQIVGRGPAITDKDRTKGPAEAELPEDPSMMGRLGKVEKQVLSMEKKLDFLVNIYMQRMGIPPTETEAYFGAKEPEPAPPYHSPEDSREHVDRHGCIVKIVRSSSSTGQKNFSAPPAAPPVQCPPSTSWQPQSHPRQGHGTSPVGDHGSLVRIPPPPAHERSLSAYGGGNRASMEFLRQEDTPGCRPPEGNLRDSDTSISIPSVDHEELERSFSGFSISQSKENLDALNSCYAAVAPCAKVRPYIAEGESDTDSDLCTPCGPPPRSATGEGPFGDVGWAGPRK
T1 sequence (O43525 whole entry): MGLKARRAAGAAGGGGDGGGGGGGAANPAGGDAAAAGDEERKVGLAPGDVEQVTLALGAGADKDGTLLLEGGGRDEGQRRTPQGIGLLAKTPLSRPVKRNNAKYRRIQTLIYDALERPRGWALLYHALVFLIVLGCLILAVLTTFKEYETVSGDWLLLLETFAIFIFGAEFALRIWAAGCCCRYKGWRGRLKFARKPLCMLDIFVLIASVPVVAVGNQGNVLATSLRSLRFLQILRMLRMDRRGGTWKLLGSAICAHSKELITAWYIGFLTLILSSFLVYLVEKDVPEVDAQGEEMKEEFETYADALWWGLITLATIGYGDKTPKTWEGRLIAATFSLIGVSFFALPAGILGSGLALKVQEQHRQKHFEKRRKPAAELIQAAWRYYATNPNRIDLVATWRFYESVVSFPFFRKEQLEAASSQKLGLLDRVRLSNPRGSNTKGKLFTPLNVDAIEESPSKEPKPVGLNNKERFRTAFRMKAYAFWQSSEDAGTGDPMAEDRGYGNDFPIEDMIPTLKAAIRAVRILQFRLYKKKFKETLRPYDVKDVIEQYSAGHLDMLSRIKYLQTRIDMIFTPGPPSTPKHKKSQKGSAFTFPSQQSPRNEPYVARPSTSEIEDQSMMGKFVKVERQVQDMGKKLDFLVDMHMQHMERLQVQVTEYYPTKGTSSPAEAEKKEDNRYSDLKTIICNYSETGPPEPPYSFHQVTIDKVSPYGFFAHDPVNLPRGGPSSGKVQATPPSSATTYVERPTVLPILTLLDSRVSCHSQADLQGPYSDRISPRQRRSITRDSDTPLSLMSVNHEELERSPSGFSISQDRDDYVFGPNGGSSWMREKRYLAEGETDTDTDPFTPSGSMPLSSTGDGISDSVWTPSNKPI

Emax [1]	EC50 [2]	SMILES	Emax (CHO-K1, read-out: Fluorimetry % efficacy (retigabine = 100%))
173%	2290 nM	CCSc1nc(N2CCOCC2)c(F)c(C)c1C(=O)NCc1cccc(F)c1 [Example 58, 2-Ethylsulfanyl-5-fluoro-N-[(3-fluorophenyl)-methyl]-4-methyl-6-morpholin-4-yl-pyridine-3-carboxylic acid amide]	–
128%	70 nM	CCSc1nc(N2CCOCC2)cc(C)c1C(=O)NCc1cccc(C(F)(F)F)c1 [Example 59, 2-Ethylsulfanyl-4-methyl-6-morpholin-4-yl-N-[[3-(trifluoromethyl)phenyl]methyl]-pyridine-3-carboxylic acid amide]	–
128%	126 nM	CCSc1nc(N2CCOCC2)cc(C)c1C(=O)NCc1ccc(C(F)(F)F)cc1 [Example 60, 2-Ethylsulfanyl-4-methyl-6-morpholin-4-yl-N-[[4-(trifluoromethyl)-phenyl]methyl]-pyridine-3-carboxylic acid amide]	–
110%	528 nM	CCSc1nc(N(C)CC2CCOCC2)cc(C)c1C(=O)NCc1cccc(F)c1 [Example 61, 2-Ethylsulfanyl-N-[(3-fluorophenyl)-methyl]-4-methyl-6-[methyl-(tetrahydro-pyran-4-yl-methyl)-amino]-pyridine-3-carboxylic acid amide]	–
164%	47 nM	Cc1cc(N2CCOCC2)nc(SCC(C)C)c1C(=O)NCc1cccc(F)c1 [Example 62, N-[(3-Fluorophenyl)-methyl]-4-methyl-2-(2-methyl-propylsulfanyl)-6-morpholin-4-yl-pyridine-3-carboxylic acid amide]	–
157%	585 nM	COCCSc1nc(N2CCOCC2)cc(C)c1C(=O)NCc1cccc(F)c1 [Example 63, N-[(3-Fluorophenyl)-methyl]-2-(2-methoxy-ethylsulfanyl)-4-methyl-6-morpholin-4-yl-pyridine-3-carboxylic acid amide]	–
137%	216 nM	CCOc1nc(N2CCOCC2)cc(C)c1C(=O)NCc1ccc(F)cc1 [Example 64, 2-Ethoxy-N-[(4-fluorophenyl)-methyl]-4-methyl-6-morpholin-4-yl-pyridine-3-carboxylic acid amide]	–
238%	1060 nM	Cc1cc(N2CCOCC2)nc(N(C)C)c1C(=O)NCc1cccc(F)c1 [Example 65, 2-Dimethylamino-N-[(3-fluorophenyl)-methyl]-4-methyl-6-morpholin-4-yl-pyridine-3-carboxylic acid amide]	–
109%	983 nM	CCSc1nc(N2CC(C)OC(C)C2)cc(C)c1C(=O)NCc1cccc(F)c1 (stereo not drawn) [Example 66, 6-(2,6-Dimethyl-morpholin-4-yl)-2-ethylsulfanyl-N-[(3-fluorophenyl)-methyl]-4-methyl-pyridine-3-carboxylic acid amide]	–
134%	7370 nM	CCSc1nc(N2CCOCC2)cc(C)c1C(=O)NCCC1CCCCO1 (stereo not drawn) [Example 68, 2-Ethylsulfanyl-4-methyl-6-morpholin-4-yl-N-(2-tetrahydro-pyran-2-yl-ethyl)-pyridine-3-carboxylic acid amide]	–
160%	4480 nM	CCSc1nc(N2CCOCC2)cc(C)c1C(=O)NCC1CCCCO1 (stereo not drawn) [Example 69, 2-Ethylsulfanyl-4-methyl-6-morpholin-4-yl-N-(tetrahydro-pyran-2-yl-methyl)-pyridine-3-carboxylic acid amide]	–
175%	163 nM	CCSc1nc(N2CCC(C)CC2)cc(C)c1C(=O)NCc1cccc(F)c1 [Example 70, 2-Ethylsulfanyl-N-[(3-fluorophenyl)-methyl]-4-methyl-6-(4-methyl-piperidin-1-yl)-pyridine-3-carboxylic acid amide]	–
-102%	275 nM	CCSc1nc(N2CCOCC2)cc(C)c1C(=O)NCc1ccccc1-c1ccc(F)cc1 [Example 71, 2-Ethylsulfanyl-N-[[2-(4-fluorophenyl)-phenyl]-methyl]-4-methyl-6-morpholin-4-yl-pyridine-3-carboxylic acid amide]	–
67%	3010 nM	CCSc1nc(N2CCN(C3CC3)CC2)cc(C)c1C(=O)NCc1cccc(F)c1 [Example 73, 6-(4-Cyclopropyl-piperazin-1-yl)-2-ethylsulfanyl-N-[(3-fluorophenyl)-methyl]-4-methyl-pyridine-3-carboxylic acid amide]	–
70%	702 nM	CCSc1nc(N2CCC(C)(C)CC2)cc(C)c1C(=O)NCc1cccc(F)c1 [Example 74, 6-(4,4-Dimethyl-piperidin-1-yl)-2-ethylsulfanyl-N-[(3-fluorophenyl)-methyl]-4-methyl-pyridine-3-carboxylic acid amide]	–
135%	61 nM	CCSc1nc(N2CCOCC2)cc(C)c1C(=O)NCc1ccc(SC(F)(F)F)cc1 [Example 75, 2-Ethylsulfanyl-4-methyl-6-morpholin-4-yl-N-[[4-(trifluoromethylsulfanyl)-phenyl]-methyl]-pyridine-3-carboxylic acid amide]	–
179%	91 nM	CCSc1nc(N2CCOCC2)cc(C)c1C(=O)NCC1CCCCC1 [Example 76, N-(Cyclohexyl-methyl)-2-ethylsulfanyl-4-methyl-6-morpholin-4-yl-pyridine-3-carboxylic acid amide]	–
40%	–	CCSc1nc(N2CCOCC2)cc(C)c1C(=O)NCCOC [Example 77, 2-Ethylsulfanyl-N-(2-methoxy-ethyl)-4-methyl-6-morpholin-4-yl-pyridine-3-carboxylic acid amide]	–
31%	–	CCSc1nc(N2CCOCC2)cc(C)c1C(=O)NCCCOC [Example 78, 2-Ethylsulfanyl-N-(3-methoxy-propyl)-4-methyl-6-morpholin-4-yl-pyridine-3-carboxylic acid amide]	–
147%	2170 nM	CCCCNC(=O)c1c(C)cc(N2CCOCC2)nc1SCC [Example 80, N-Butyl-2-ethylsulfanyl-4-methyl-6-morpholin-4-yl-pyridine-3-carboxylic acid amide]	–
163%	662 nM	CCCCCNC(=O)c1c(C)cc(N2CCOCC2)nc1SCC [Example 81, 2-Ethylsulfanyl-4-methyl-6-morpholin-4-yl-N-pentyl-pyridine-3-carboxylic acid amide]	–
117%	118 nM	CCSc1nc(N2CCOCC2)cc(C)c1C(=O)NCc1ccc(F)c(C(F)(F)F)c1 [Example 82, 2-Ethylsulfanyl-N-[[4-fluoro-3-(trifluoromethyl)-phenyl]-methyl]-4-methyl-6-morpholin-4-yl-pyridine-3-carboxylic acid amide]	–
203%	357 nM	CCSc1nc(N2CCOCC2)cc(C)c1C(=O)NCCCC(F)(F)F [Example 84, 2-Ethylsulfanyl-4-methyl-6-morpholin-4-yl-N-(4,4,4-trifluoro-butyl)-pyridine-3-carboxylic acid amide]	–

SMILES	Emax [1]	EC50 [2]	Emax (CHO-K1, read-out: Fluorimetry % efficacy (retigabine = 100%))
CCOC(=O)CN(C)c1cc(C)c(C(=O)NCc2cccc(F)c2)c(SCC)n1 [Example 72]	–	2080 nM	93%
CCSc1nc(N2CCOCC2)cc(C)c1C(=O)NCCOC(C)(C)C [Example 83, N-(2-tert-Butoxy-ethyl)-2-ethylsulfanyl-4-methyl-6-morpholin-4-yl-pyridine-3-carboxylic acid amide]	182%	2800 nM	–
